# Values of other authors in patent US9206100B2, “Route to synthetic analogues of Rocaglamide and Aglafoline using cascade transformations initiated by oxy-cope rearrangement of bis-alkynes” (The Florida State University Research Foundation, Inc., priority 2010, dated 2015).
# System: various human leukemia cell lines
# Settings: through the intrinsic death pathway; human leukemia cell lines and ALL, CML and AML cells freshly isolated from patients
smiles,measurement,value
COc1ccc([C@@]23Oc4cc(OC)cc(OC)c4[C@]2(O)[C@H](O)[C@H](C(=O)N(C)C)[C@H]3c2ccccc2)cc1 [Rocaglamide],apoptosis induction,induces apoptosis
